Source: patent US8288377B2, “Inhibitors of the interaction between MDM2 and p53” (Janssen Pharmaceutica N.V., priority 2007, dated 2012)

Experiments:
p53 in A2780 cells = test: p53 ELISA (preservation of p53 in A2780 cells); assay type: cell-based; details: Homo sapiens, treated with compound for 16 hours, read-out: p53-elisa LAD (lowest dose giving at least 140% of the value for p53 present in the control)
Description: The capacity of the compounds to preserve p53 in A2780 cells was measured with the p53 enzyme linked immunosorbent assay (ELISA). The p53 assay is a “sandwich” enzyme immunoassay employing two polyclonal antibodies. A polyclonal antibody, specific for the p53 protein, has been immobilized onto the surface of the plastic wells. Any p53 present in the sample to be assayed will bind to the capture antibody. The biotinylated detector polyclonal antibody also recognizes p53 protein, and will bind to any p53, which has been retained by the capture antibody. The detector antibody, in turn, is bound by horseradish peroxidase-conjugated streptavidin. The horseradish peroxidase catalyses the conversion of the chromogenic substrate o-phenylene diamine, the intensity of which is proportional to the amount of p53 protein bound to the plate. The coloured reaction product is quantified using a spectrophotometer. Quantitation is achieved by the construction of a standard curve using known concentrations of purified recombinant HIS tagged p53 protein (see example C.1).
A2780 cells (ATCC) were cultivated in RPMI 1640 supplemented with 10% fetal calf serum (FCS), 2 mM L-glutamine and gentamycin at 37° C. in a humidified incubator with 5% CO2.
A2780 cells were seeded at 20.000 cells per well in a 96 well plate, cultured for 24 hours and treated with compound for 16 hours at 37° C. in a humidified incubator. After incubation, the cells were washed once with phosphate-buffered saline and 30 μl, per well, low salt RIPA buffer (20 mM tris, pH7.0, 0.5 mM EDTA, 1% Nonidet P40, 0.5% DOC, 0.05% SDS, 1 mM PMSF, 1 μg/ml aprotinin and 0.5 μ/ml leupeptin) was added. Plates were placed on ice for 30 minutes to complete the lysis. p53 protein was detected in de lysates by using the sandwich ELISA, described below.
High binding polystyrene EIA/RIA 96 well plates (Costar 9018) were coated with the capture antibody pAb1801 (Abcam ab28-100) at a concentration of 1 μg/ml in coating buffer (0.1 M NaHCO3 pH8.2), 50 μl per well. The antibody was allowed to adhere overnight at 4° C. Coated plates were washed once with phosphate-buffered saline (PBS)/0.05% Tween 20 and 300 μl of blocking buffer (PBS, 1% bovine serum albumins (BSA)) was added, for an incubation period of 2 hours at room temperature. Dilutions of purified recombinant HIS tagged p53 protein, ranging from 3-200 ng/ml, were made in blocking buffer and used as standards.
Plates were washed twice with PBS/0.05% Tween 20 and blocking buffer or standards were added at 80 μl/well. To the standards, 20 μl of lysis buffer was added. The samples were added to the other wells at 20 μl lysate/well. After an overnight incubation at 4° C., plates were washed twice with PBS/0.05% Tween 20. Aliquots of 100 μl secondary polyclonal antibody p53(FL-393) (Tebubio, sc-6243) at a concentration of 1 μg/ml in blocking buffer were added to each well and allowed to adhere for 2 hours at room temperature. Plates were washed three times with PBS/0.05% Tween 20. Detection antibody anti-rabbit HRP (sc-2004, Tebubio) at 0.04 μg/ml in PBS/1% BSA was added and incubated for 1 hour at room temperature. Plates were washed three times with PBS/0.05% Tween 20 and 100 μl of substrate buffer was added (substrate buffer was prepared shortly before use by adding 1 tablet of 10 mg o-phenylene diamine (OPD) from Sigma and 125 μl 3% H2O2 to 25 ml OPD buffer: 35 mM citric acid, 66 mM Na2HPO4, pH5.6). After 5 to 10 minutes, colour reaction was stopped by adding 50 μl stop buffer (1 M H2SO4) per well. The absorbance at dual wavelengths of 490/655 nm was measured using a Biorad micro plate reader and the results were then analyzed.
For each experiment, controls (containing no drug) and a blank incubation (containing no cells or drugs) were run in parallel. The blank value was subtracted from all control and sample values. For each sample, the value of p53 (in absorbance units) was expressed as the percentage of the value for p53 present in the control. […]

[1] = test system: A2780 ovarian cancer cells; test: Proliferation assay (Alamar Blue); assay type: cell-based; details: Homo sapiens, 96 h, 4-day incubation, read-out: pIC50 (negative log value of the IC50-value) (converted)
Description: Cellular activity of the compounds of formula (I) was determined on A2780 tumour cells using a colorimetric assay for cell toxicity or survival (see example C.2).
The human A2780 ovarian cancer cells were a kind gift from Dr. T. C. Hamilton (Fox Chase Cancer Centre, Pennsylvania, U.S.A.). The cells were cultured in RPMI 1640 medium supplemented with 2 mM L-Glutamine, 50 μg/ml gentamicin and 10% fetal calf serum.
Resazurin was purchased from Aldrich (Prod. No. 199303). Potassium ferrocyanide, potassium ferricyanide, KH2PO4 and K2HPO4 were purchased from Sigma (Prod. Nos. P9387, P8131, P5655 and P8281, respectively).
Potassium Phosphate Buffer 0.1 M (PPB) was made as follows: 2.72 gram KH2PO4 and 13.86 gram K2HPO4 were dissolved in 500 ml milli-Q H2O, the pH was adjusted to pH 7.4 and the volume was brought to 1 liter with milli-Q H2O; the buffer was filter sterilised and stored at room temperature. Resazurin stock solution (PPB-A) was prepared fresh by dissolving 45 mg resazurin in 15 ml PBS. 30 mM potassium ferricyanide (PPB-B) was prepared by dissolving 0.987 gram potassium ferricyanide in 100 ml PPB. 30 mM potassium ferrocyanide (PPB-C) was prepared by dissolving 1.266 gram potassium ferrocyanide in 100 ml PPB.
Mixture of PPB-A, PPB-B and PPB-C was prepared by mixing equal volumes of the respective solutions. Resazurin work solution (herein termed “Alamar Blue” solution) was prepared by diluting said mixture 20× (vol/vol) in PPB and filter sterilising; the Alamar Blue solution could be kept at 4° C. for a maximum of 2 weeks.
For experiments in 384 wells plates the cells were seeded at a density of 5×10^3 cells/ml in Falcon 384-well culture plates (Life Technologies, Merelbeke, Belgium), black with clear bottom, in 45 μl culture medium. Cells were allowed to adhere to plastic for 24 hr. The tested compound was pre-diluted (1/50 in culture medium) and 5 μl pre-diluted compound was added to the wells. Following 4-day incubation, 10 μl of the Alamar Blue solution was added to each well and the cells were further incubated for 5 hrs (A2780) at 37° C. The fluorescence intensity was measured for each well with a Fluorescence plate reader (Fluorskan, Labsystems, 540 nm excitation and 590 nm emission)
The antiproliferative activity was calculated as percentage of remaining viable cells in treated versus control (untreated cells) conditions. Within an experiment, the result for each experimental condition is the mean of 3 replicate wells. When appropriate, the experiments were repeated to establish full concentration-response curves. When appropriate, IC50-values (concentration of the drug, needed to reduce cell growth to 50% of the control) were computed using probit analysis for graded data (Finney, D. J., Probit Analyses, 2nd Ed. Chapter 10, Graded Responses, Cambridge University Press, Cambridge 1962). Herein the effects of test compounds are expressed as pIC50 (the negative log value of the IC50-value) (see Table 4).

Row | Compound | IC50 [1] [µM] | minimal effective concentration (p53 in A2780 cells) [µM]
1 | OC1CCc2c(Nc3ccc4c(c3)OCCN4CCc3coc4ccccc34)ccnc21 (stereo not drawn) [Compound 70] | 6.46 | 10
2 | O=C1N(CCc2c[nH]c3ccccc23)c2ccc(Nc3ccnc(CO)c3)cc2OC1(F)F [Compound 64] |  | 10
3 | Cc1cccc2c(CCN3C[C@@H](CO)Oc4cc(Nc5ccnc6c5CC[C@@H]6O)ccc43)c[nH]c12 [Compound 19] |  | > 10
4 | Cc1cccc2c(CCN3CC(C)Oc4cc(Nc5ccncc5)ccc43)coc12 (stereo not drawn) [Compound 53] | 3.47 | > 10
5 | Cc1cccc2c(CCN3CC(CO)Oc4cc(Nc5ccncc5)ccc43)c[nH]c12 (stereo not drawn) [Compound 17] |  | > 10
6 | O=C1N(CCc2c[nH]c3ccccc23)c2ccc(Nc3ccnc4c3CCC4O)cc2OC1(F)F (stereo not drawn) [Compound 10] |  | 0.3
7 | Cc1cccc2c(CCN3CC(O)COc4cc(Nc5ccnc6c5CCC6O)ccc43)c[nH]c12 (stereo not drawn) [Compound 18] |  | > 10
8 | Cc1cccc2c(CCN3CC4(CCN(C)CC4)Oc4cc(Nc5ccncc5)ccc43)c[nH]c12 [Compound 58] |  | > 10
9 | Cc1cccc2c(CCN3CC4(CCNCC4)Oc4cc(Nc5ccncc5)ccc43)c[nH]c12 [Compound 73] |  | > 10
10 | CC1CN(CCc2c[nH]c3ccccc23)c2c(F)cc(Nc3ccncc3)cc2O1 (stereo not drawn) [Compound 57] |  | > 10
11 | O=C1N(CCc2c[nH]c3ccccc23)c2ccc(Nc3ccncc3)cc2OC1(F)F [Compound 60] |  | > 10
12 | CC1CN(CCc2c[nH]c3ccccc23)c2c(F)cc(Nc3ccnc4c3CCC4O)cc2O1 (stereo not drawn) [Compound 32] |  | 3
13 | CC1CN(CCc2c[nH]c3ccccc23)c2ccc(Nc3ccnc(CO)c3)cc2O1 (stereo not drawn) [Compound 79] |  | 10
14 | Cc1cccc2c(CCN3CC4(CCNCC4)Oc4cc(Nc5ccnc6c5CCC6O)ccc43)c[nH]c12 (stereo not drawn) [Compound 74] |  | > 10

Now from value to compound, other results behind:

Row | IC50 [1] [µM] | Compound | minimal effective concentration (p53 in A2780 cells) [µM]
15 | 2.34 | OC1CCc2c(Nc3ccc4c(c3)CCCN4CCc3c[nH]c4ccccc34)ccnc21 (stereo not drawn) [Compound 11] | 0.1
16 | 2.88 | Cc1cccc2c(CCN3CCOc4cc(Nc5ccnc6c5CCC6O)ccc43)c[nH]c12 (stereo not drawn) [Compound 14] | 3
17 | > 10 | OCc1cc(Nc2cc(F)c3c(c2)OCCN3CCc2c[nH]c3ccccc23)ccn1 [Compound 69] | 10
18 | 3.72 | OC1CCc2c(Nc3ccc4c(c3)OCCN4CCc3csc4ccccc34)ccnc21 (stereo not drawn) [Compound 12] | 0.3
19 | ~4.79 | c1ccc2c(CCN3CC4(CCSCC4)Oc4cc(Nc5ccncc5)ccc43)c[nH]c2c1 [Compound 56] | > 10
20 | > 10 | CC1Oc2cc(Nc3ccncc3)ccc2N(CCc2c[nH]c3ccccc23)C1=O (stereo not drawn) [Compound 61] | > 10
21 | 4.37 | Cc1cccc2c(CCN3CC4(CCCCC4)Oc4cc(Nc5ccnc(CO)c5)ccc43)c[nH]c12 [Compound 34] | 0.3
22 | 5.25 | COc1cccc2c(CCN3CCOc4cc(Nc5ccnc6c5CCC6O)ccc43)c[nH]c12 (stereo not drawn) [Compound 71] | > 10
23 | 8.51 | c1ccc2c(CCN3CC4(CCOCC4)Oc4cc(Nc5ccncc5)ccc43)c[nH]c2c1 [Compound 7] | > 10
24 | 3.09 | Cc1cccc2c(CCN3CC(C)(C)Oc4cc(Nc5ccncc5)ccc43)c[nH]c12 [Compound 52] | > 10
25 | 6.17 | CC1(C)CN(CCc2c[nH]c3ccccc23)c2ccc(Nc3ccnc(CO)c3)cc2O1 [Compound 78] | > 10
26 | 3.39 | CC(C)N1CCC2(CC1)CN(CCc1c[nH]c3ccccc13)c1ccc(Nc3ccnc(CO)c3)cc1O2 [Compound 36] | > 10
27 | 5.13 | CCC1(C)CN(CCc2c[nH]c3ccccc23)c2ccc(Nc3ccnc4c3CCC4O)cc2O1 (stereo not drawn) [Compound 27] | 1
28 | > 10 | CC1Oc2cc(Nc3ccnc(CO)c3)ccc2N(CCc2c[nH]c3ccccc23)C1=O (stereo not drawn) [Compound 65] | > 10
29 | 4.17 | COc1cccc2c(CCN3CCOc4cc(Nc5ccnc(CO)c5)ccc43)c[nH]c12 [Compound 81] | > 10
30 | 3.72 | c1ccc2c(CCN3CC4(CCCCC4)Oc4cc(Nc5ccncc5)ccc43)c[nH]c2c1 [Compound 55] | > 10
31 | 0.427 | OC1CCc2c(Nc3ccc4c(c3)OCCN4CCc3c[nH]c4ccccc34)ccnc21 (stereo not drawn) [Compound 1] | 0.1
32 | 3.02 | c1ccc2c(CCN3CCCc4cc(Nc5ccncc5)ccc43)c[nH]c2c1 [Compound 23] | > 10
33 | ~5.01 | CN1CCC2(CC1)CN(CCc1c[nH]c3ccccc13)c1ccc(Nc3ccnc(CO)c3)cc1O2 [Compound 43] | > 10
34 | 8.32 | c1ccc2c(CCN3CC4(CCNCC4)Oc4cc(Nc5ccncc5)ccc43)c[nH]c2c1 [Compound 15] | > 10
35 | 3.09 | CC1Oc2cc(Nc3ccnc4c3CCC4O)ccc2N(CCc2c[nH]c3ccccc23)C1=O (stereo not drawn) [Compound 80] | 
